Paper PMC12723664, “A high-quality chromosome-level genome assembly of the oligophagous fruit fly Bactrocera tsuneonis (Diptera: Tephritidae) and insights into its host specificity” (GigaScience, 2025)
“Also recorded” adds a separate entry of the source.

Assays:
BtsuOBP83a = assay: Fluorescence competitive binding assay (1-NPN probe), recombinant BtsuOBP83a; set-up: species or system Bactrocera tsuneonis; details: for Ki: relative dissociation constant calculated from IC50, competition with 1-NPN, ligand 4–32 μmol/L, pH 7.4, read-out: Ki (μM) OBP83a; for binding to BtsuOBP83a (in words): fluorescence competitive binding assay
Excerpt: (§1) Full-length sequences of BtsuOBP83a and BtsuOBP83b were amplified using specific primers (Supplementary Table S1). Purified PCR products were cloned into the pGEM-T vector (Promega) for sequencing verification. The confirmed target fragments were then subcloned into the pET-30a(+) expression vector (Sangon) using restriction enzymes (Supplementary Table S2) and T4 DNA ligase (Takara). Recombinant plasmids were transformed into Escherichia coli BL21 (DE3) competent cells (Tiangen). Bacterial cultures were grown to an OD600 of 0.6–0.8, after which protein expression was induced by adding isopropyl-β-D-thiogalactopyranoside (IPTG) (Solarbio) to a final concentration of 1 mM at different temperatures. Cells were harvested by centrifugation (5,000 × g, 15 minutes), lysed in phosphate-buffered saline buffer via sonication, and subjected to sodium dodecyl sulfate–polyacrylamide gel electrophoresis (SDS-PAGE) analysis after heat treatment. Large-scale protein expression was performed under optimized induction conditions. Soluble proteins in the supernatant were purified twice using Ni-affinity chromatography (GE Healthcare). His-tags were removed using enterokinase (Novoprotein). All purification steps were conducted at 4°C. The size and purity of OBP proteins were evaluated via SDS-PAGE, and protein concentrations were determined using the Bradford method.
(§2) The ligand-binding affinities of candidate OBPs were evaluated using fluorescence competitive binding assays performed on an F-380 Fluorescence Spectrophotometer (Tianfang), with modifications to the standard procedure. Purified OBP proteins were diluted to a final concentration of 2 μmol/L in 50 mmol/L Tris-HCl buffer (pH 7.4). The fluorescent probe N-phenyl-1-naphthylamine (1-NPN) and all candidate volatile ligands were dissolved in high-performance liquid chromatography–grade methanol at an initial concentration of 1 mmol/L. The binding constant between OBPs and 1-NPN was determined by recording emission spectra from 350 to 470 nm at an excitation wavelength of 337 nm. To establish binding saturation, titrations were conducted by sequentially adding 1-NPN to the protein solution, reaching final concentrations of 2–20 μmol/L in 2-μmol/L increments. Fluorescence intensity was measured after stabilization, and each measurement was performed in triplicate. […] Each experiment was conducted in triplicate. Dissociation constants (Ki) for the volatile ligands were calculated from the corresponding IC50 values using the following equation: […]

BtsuOBP83b = assay: Fluorescence competitive binding assay (1-NPN probe), recombinant BtsuOBP83b; set-up: species or system Bactrocera tsuneonis; details: for Ki: relative dissociation constant calculated from IC50, competition with 1-NPN, ligand 4–32 μmol/L, pH 7.4, read-out: Ki (μM) OBP83b
Excerpt: as §1, §2

Structure (SMILES) | Ki (BtsuOBP83a) | Ki (BtsuOBP83b) | Kd (BtsuOBP83a; BtsuOBP83a 2 μmol/L, 50 mmol/L Tris-HCl pH 7.4, 1-NPN 2–20 μmol/L, Scatchard, read-out: dissociation constants (Kd) for 1-NPN) | Kd (BtsuOBP83b; BtsuOBP83b 2 μmol/L, 50 mmol/L Tris-HCl pH 7.4, 1-NPN 2–20 μmol/L, Scatchard, read-out: dissociation constants (Kd) for 1-NPN) | binding to BtsuOBP83a (in words) (BtsuOBP83a)
CCCCCCCCCCCCF [1-Fluorododecane] | > 50 µM | > 50 µM |  |  | 
CCCCCCO [1-Hexanol] | > 50 µM | 31.8 µM |  |  | 
CC1=CCCC1 [1-Methylcyclopentene] | > 50 µM | > 50 µM |  |  | 
c1ccc(Nc2cccc3ccccc23)cc1 [1-NPN, N-phenyl-1-naphthylamine, reference compound] |  |  | 5.48 µM | 6.92 µM | 
CCCCCCCCO [1-Octanol] | 36.4 µM | 39.1 µM |  |  | 
CCc1ccco1 [2-Ethylfuran] | > 50 µM | > 50 µM |  |  | 
CCCC=CC=O [2-Hexenal] | 42.7 µM | 31.9 µM |  |  | 
COc1cc(C)ccc1C(C)C [2-Isopropyl-5-methylanisole] | > 50 µM | > 50 µM |  |  | 
C#Cc1cccc(N)c1 [3-Ethynylaniline] | > 50 µM | > 50 µM |  |  | 
CC1=C[C@@H]2C(=C(C)CC[C@H]2C(C)C)CC1 [(+)-delta-Cadinene] | > 50 µM | > 50 µM |  |  | 
CC1=CC[C@@H](C(C)(C)O)CC1 [(L)-alpha-terpineol] | > 50 µM | > 50 µM |  |  | 
CCCCOC(=O)C(C)CC (stereo not drawn) [Butyl 2-methylbutyrate] | > 50 µM | > 50 µM |  |  | 
CCCCOC(=O)CCC [Butyl butyrate] | > 50 µM | > 50 µM |  |  | 
CCCCCCCC(=O)OCCCC [Butyl caprylate] | > 50 µM | > 50 µM |  |  | 
CCCCOC(=O)CC [Butyl propionate] | > 50 µM | > 50 µM |  |  | 
Cc1ccc(C(C)C)cc1O [Carvacrol] | > 50 µM | > 50 µM |  |  | 
CC(C)c1ccccc1 [Cumene] | > 50 µM | > 50 µM |  |  | 
CCOC(=O)C(C)CC (stereo not drawn) [Ethyl 2-methylbutyrate] | > 50 µM | > 50 µM |  |  | 
C/C=C/C(=O)OCC [Ethyl crotonate] | > 50 µM | > 50 µM |  |  | 
CCCCCC(=O)OCC [Ethyl hexanoate] | > 50 µM | > 50 µM |  |  | 
CCCCC/C=C/C(=O)OCC [Ethyl trans-2-octenoate] | 46.3 µM | > 50 µM |  |  | 
CCCCC(=O)OCC [Ethyl valerate] | > 50 µM | > 50 µM |  |  | 

Structure (SMILES) | Ki (BtsuOBP83a) | Ki (BtsuOBP83b) | Kd (BtsuOBP83a; BtsuOBP83a 2 μmol/L, 50 mmol/L Tris-HCl pH 7.4, 1-NPN 2–20 μmol/L, Scatchard, read-out: dissociation constants (Kd) for 1-NPN) | Kd (BtsuOBP83b; BtsuOBP83b 2 μmol/L, 50 mmol/L Tris-HCl pH 7.4, 1-NPN 2–20 μmol/L, Scatchard, read-out: dissociation constants (Kd) for 1-NPN) | binding to BtsuOBP83a (in words) (BtsuOBP83a)
CCOC(C)=O [Ethylacetate] | > 50 µM | 33 µM |  |  | 
CCc1ccccc1 [Ethylbenzene] | > 50 µM | > 50 µM |  |  | 
CCCCCC=O [Hexanal] | 40.7 µM | 33.7 µM |  |  | 
CC(=O)OCCC(C)C [Isoamyl acetate] | > 50 µM | 33.5 µM |  |  | 
CCCC(=O)OCCC(C)C [Isoamyl butyrate] | > 50 µM | > 50 µM |  |  | 
C=C1CC/C=C(/C)CC[C@@H]2[C@@H]1CC2(C)C [Isocaryophyllene] | > 50 µM | > 50 µM |  |  | 
CC(C)CCO [Isopentyl alcohol] | > 50 µM | 40.2 µM |  |  | 
CC(C)=CCC/C(C)=C\CO [Nerol] | > 50 µM | > 50 µM |  |  | 
CC(=O)OC/C=C(/C)CCC=C(C)C [Neryl acetate] | > 50 µM | > 50 µM |  |  | 
CCCCCCCCOC(C)=O [Octyl acetate] | > 50 µM | > 50 µM |  |  | 
CC1=CC(=O)C(C(C)C)CC1 (stereo not drawn) [Piperitone] | 17.9 µM | > 50 µM |  |  | selectively binds; also recorded: binds strongly; also recorded: strong binding affinity
CCCCCC(=O)OCCC [Propyl Hexanoate] | > 50 µM | > 50 µM |  |  | 
C=Cc1ccccc1 [Styrene] | > 50 µM | > 50 µM |  |  | 
CC1=CCCC(C)(C)C12CCC(C)O2 (stereo not drawn) [Theaspirane] | > 50 µM | > 50 µM |  |  | 
CC1=CCC2CC1C2(C)C (stereo not drawn) [alpha-Pinene] | 49.2 µM | > 50 µM |  |  | 
C=C1CC/C=C(\C)CC[C@@H]2[C@@H]1CC2(C)C [beta-Caryophyllene] | > 50 µM | > 50 µM |  |  | 
CC/C=C\CCO [cis-3-Hexen-1-ol] | 32.1 µM | 31.8 µM |  |  | 
CC/C=C\CCOC(=O)CC [cis-3-Hexenyl propionate] | > 50 µM | > 50 µM |  |  | 
C=C(C)[C@H]1CC=C(C)C(=O)C1 [d-Carvone] | > 50 µM | > 50 µM |  |  | 
CCC/C=C/COC(=O)CCC [trans-2-Hexenyl Butyrate] | > 50 µM | 28.5 µM |  |  | 
CCC/C=C/COC(=O)CC [trans-2-Hexenyl propionate] | > 50 µM | > 50 µM |  |  | 
C=CC(C)(O)CC/C=C(\C)CCC=C(C)C (stereo not drawn) [trans-Nerolidol] | 9.36 µM | > 50 µM |  |  | selectively binds; also recorded: binds strongly; also recorded: strong binding affinity
